From US20250025451A1, “TREATMENT OF CANCER WITH KDM4 INHIBITORS” (Celgene Corporation, priority 2021, published 2025)

Experiments:
[1] = tested on: GXA-3036 gastric adenocarcinoma patient-derived xenograft; assay: in vivo efficacy, GXA-3036 gastric adenocarcinoma patient-derived xenograft model; conditions: GXA-3036 PDX; for Median Tumor Volume Diff. (Day 35): Day 35 minus Day 0; for Median Tumor Volume Diff. (Day 38): Day 38 minus Day 0
Protocol: The therapeutic in vivo efficacy of Compound 1 was evaluated in SU60 colorectal cancer, KYSE-150 esophageal cancer, COH70 triple-negative breast cancer, GXA-3036 gastric adenocarcinoma and OCI-LY19 Diffuse Large B-Cell Non-Hodgkin's Lymphoma xenograft models. In all studies, efficacy was determined based on percent tumor growth inhibition (TGI), differences in mean tumor growth, and statistical assessment of differences in net tumor volume distributions on the day of TGI analysis between control and treated animals. Tolerability was assessed based on differences in mean body weights between control and treated animals over the course of the study.
The in vivo efficacy and tolerability of Compound 1, administered orally as the lysine salt form suspended in a vehicle comprised of 5% 2-hydroxypropyl-beta-cyclodextrin (HPBCD) in 50 mM phosphate buffer (pH 7.4), were evaluated in female immunodeficient NMRI-Foxn1nu mice using the subcutaneous gastric adenocarcinoma GXA-3036, a moderately differentiated intestinal type (based on Lauren's criteria) PDX model of Asian origin. Each mouse was inoculated subcutaneously in the right flank with a GXA-3036 tumor fragment (3 to 4 mm edge length). When the average tumor size reached ˜109 mm3, test animals were randomized into 5 groups consisting of 8 mice per group and treatments were initiated. Control mice received 5% HPBCD in 50 mM phosphate buffer (pH 7.4) vehicle PO 3 on/4 off. Treated mice received the Compound 1 lysine salt form in vehicle at 5, 15, or 50 mg/kg on the same schedule or at 22.5 mg/kg 2 on/5 off. One control animal, classified as moribund, was euthanized on Day 17 and was censored from analysis. Individual tumors were measured twice weekly in two dimensions using a caliper, and the tumor volumes (TV) in mm3 were calculated using the formula: TV=0.5 a×b2, where a and b are the long and short diameters in mm, respectively. Mean tumor volumes±SEM were calculated and plotted versus days of dosing (FIG. 14 left panel). Body weights were measured twice weekly. Body weights±SEM were calculated and plotted versus days of dosing (FIG. 14 right panel).
TGI was determined on Days 35 and 38 as (1−Difftreated/Diffcontrol)×100. The differences in median net tumor volumes on the days of TGI analysis for treated versus control animals were evaluated statistically using the non-parametric Kruskal-Wallis test followed by Dunn's multiple comparisons test. The reported adjusted p-values are for both days of TGI analysis where a calculated probability (p)≤0.05 was considered statistically significant.

[2] = tested on: tumorigenic CD44^High;EpCAM^+ cells of SU60 xenograft tumors; assay: flow cytometry analysis of tumorigenic cell population after treatment of SU60 xenograft tumors; type: in vivo; conditions: NSG female mice, 40 mg/kg PO QD x21
Protocol: The ability of Compound 1 to affect tumorigenic potential was analyzed by flow cytometry analysis of the tumorigenic cell population and functional in vivo tumorigenicity assay (limiting dilution assay).
To assess the effect of Compound 1 on tumorigenic cell population, Compound 1 was used to treat SU60 xenograft tumors. NSG female mice engrafted with SU60 cells (7 mice each group) were administered Compound 1 at 40 mg/kg PO QD×21. The day after the last dose, three tumors nearest to the mean size from each group were dissociated and the single cells were used to perform: 1) flow cytometry analysis of the tumorigenic cell population and 2) functional in vivo tumorigenicity assay (limiting dilution assay). Flow Cytometry Analysis of Tumorigenic Cell Population after Compound 1 Treatment
The proportion of tumorigenic CD44^High;EpCAM^+ cells in the cell population was quantified by flow cytometry. […] Flow cytometry analysis performed on single cell isolated from 3 vehicle-treated and 3 Compound 1-treated tumors. P-value was determined with unpaired Student T-test.

[3] = tested on: immature and mature cell markers in SU60 xenograft tumor cells; assay: single cell gene expression analysis (RT-qPCR) of SU60 xenograft tumors; type: in vivo; conditions: treated vs vehicle
Excerpt: FIG. 22 illustrates the heatmap representation of single cells gene expression analysis (RT-qPCR) from SU60 xenograft tumors treated with vehicle control or Compound 1. A) Heatmap representation of single cells gene expression analysis (RT-qPCR) from SU60 xenograft tumors treated with vehicle control or Compound 1. Gene expression levels are colored-coded with red for high expression, green low expression and gray not expressed. Three clusters of cells were identified based on shared patterns of gene expression using a gene-set of immature and mature cell markers. […] The top dendrogram clusters genes with similar expression pattern across all cells. Gene expression (in Ct values) was mean-centered at 0 and divided by 2.5 time the standard deviation. B) This graph represents the total number of vehicle-treated and compound 1 treated cells within each cluster. P-values (Fisher's exact test) are represented on top of the bars.
Vehicle control and Compound 1-treated samples were characterized by single cell transcriptional profiling with a gene-set designed to discriminate immature colon progenitor cells and more mature cell-types (Dalerba, 2011). […] Using hierarchical clustering analysis, three clusters based on expression of a subset of immature and mature cell markers were identified. […]

human cancer cell lines = assay: apoptosis in human cancer cell lines; type: cell-based
[4] = 15 mg/kg PO 3 on/4 off, 15 mg/kg
[5] = 22.5 mg/kg PO 2 on/5 off, 22.5 mg/kg
[6] = 50 mg/kg PO 3 on/4 off, 50 mg/kg

## CC(C)c1ccc(N(C)c2ccc3c(c2)OCC[C@H]3CNc2cnccc2C(=O)O)cc1 [Compound 1, 3-({[(4R)-7-{methyl[4-(propan-2-yl)phenyl]amino}-3,4-dihydro-2H-1-benzopyran-4-yl]methyl}amino)pyridine-4-carboxylic acid]
[1]; female NMRI-Foxn1nu mice, all regimens
  tolerability (mean body weights): well-tolerated
[1]; female NMRI-Foxn1nu mice, lysine salt 5 mg/kg (free acid equivalents) PO 3 on/4 off
  Median Tumor Volume Day 35: 391 mm^3
[1]; female NMRI-Foxn1nu mice, lysine salt 15 mg/kg (free acid equivalents) PO 3 on/4 off
  Median Tumor Volume Day 35: 278 mm^3
[1]; female NMRI-Foxn1nu mice, lysine salt 22.5 mg/kg (free acid equivalents) PO 2 on/5 off
  Median Tumor Volume Day 35: 447 mm^3
[1]; female NMRI-Foxn1nu mice, lysine salt 50 mg/kg (free acid equivalents) PO 3 on/4 off
  Median Tumor Volume Day 35: 371 mm^3
[1]; 5 mg/kg PO 3 on/4 off
  Median Tumor Volume Day 38: 460 mm^3
  Median Tumor Volume Diff. (Day 35): 282 mm^3
  Median Tumor Volume Diff. (Day 38): 351 mm^3
[1]; 5 mg/kg PO 3 on/4 off, 5 mg/kg
  % TGI (Day 35): 52%
  % TGI (Day 38): 43%
[1]; 15 mg/kg PO 3 on/4 off
  Median Tumor Volume Day 38: 298 mm^3
  Median Tumor Volume Diff. (Day 35): 169 mm^3
  Median Tumor Volume Diff. (Day 38): 189 mm^3
[1]; [4]
  % TGI (Day 35): 71%
  % TGI (Day 38): 69%
[1]; 22.5 mg/kg PO 2 on/5 off
  Median Tumor Volume Day 38: 470 mm^3
  Median Tumor Volume Diff. (Day 35): 338 mm^3
  Median Tumor Volume Diff. (Day 38): 361 mm^3
[1]; [5]
  % TGI (Day 35): 42%
  % TGI (Day 38): 41%
[1]; 50 mg/kg PO 3 on/4 off
  Median Tumor Volume Day 38: 403 mm^3
  Median Tumor Volume Diff. (Day 35): 262 mm^3
  Median Tumor Volume Diff. (Day 38): 294 mm^3
[1]; [6]
  % TGI (Day 35): 55%
  % TGI (Day 38): 52%
[2]
  reduction of the proportion of tumorigenic cells (CD44^High;EpCAM^+) compared to vehicle control: 2.5 fold
[3]; p=0.01
  change in the proportion of progenitor-like cells: significant reduction
[3]; p=0.07
  change in number of intermediate-like and differentiated-like cells: increase was not significant
Human cancer cell lines
  effect on apoptosis: induces apoptosis
